Reference: US20130041005A1, “PHARMACEUTICAL COMPOSITIONS COMPRISING NEUROPILIN INHIBITORS, AND THEIR USE FOR THE PREVENTION AND/OR TREATMENT OF ANGIOGENIC DISORDERS AND CANCERS” (TRAGEX PHARMA, priority 2011, published 2013)

Key:
Assay type in all cases: cell-based
U87 glioblastoma = experiment: WST-1 proliferation assay, U87; settings: Homo sapiens; for IC50: Brain U87, 72 h, read-out: Anti-proliferative activity IC50 (μM) ± SD; for inhibition at 0.1 µM / inhibition at 0.5 µM / inhibition at 1 µM: U87 glioblastoma
Description: (§1) Several cancer cell lines were used: breast cancer cells (MDA-MB-231 (ATTCC® Number HTB-26™), MDA-MB-436 (ATTCC® Number HTB-130™), MDA-MB-438, BT-474 (ATTCC® Number HTB-20™)); cervical cancer cells (HeLa (ATTCC® Number CCL-2™)); colon cancer cells (HCT-116 (ATTCC® Number CCL-247™) and HT-29 (ATTCC® Number HTB-38™)); osteosarcoma cells (U2OS (ATTCC® Number HTB-96™)); pancreas cancer cells (MIA PaCa-2 (ATTCC® Number CRL-1420™) and Panc-10.5 (ATTCC® Number CRL-2547™)); prostate cancer cells (PC-3 (ATTCC® Number CRL-1435™) and LNCaP (ATTCC® Number CRL-1740™)); brain cancer cells (U87 glioblastoma (ATTCC® Number HTB-14™) and SH-SYSY neuroblastoma (ATTCC® Number CRL-2266™)).
(§2) All the cancer cell lines were maintained in cultured in DMEM GlutaMAX™ (GIBCO Invitrogen, France, cat no 31966047) enhanced with 10% foetal bovine serum (GIBCO Invitrogen, France, cat no 10270-106) and 1% penicillin G/streptomycin (GIBCO Invitrogen, France, cat no 15140-122). Only Panc-10.5 cells were cultivated in RPMI 1640 medium (Gibco) supplemented with 2 mM L-glutamine, 1.5 g/L sodium bicarbonate, 4.5 g/L glucose, 10 mM HEPES, 1 mM sodium pyruvate, 10 Units/ml human insulin, […] (SVF): 15% (75 ml in 500 ml of medium).
(§3) Cells were grown as subconfluent monolayer and cultured in 75 cm^2 flasks at 37° C., 5% CO2 in a humidified atmosphere, and medium was changed every two days. Only cells from passages 2-6 were used for the experiments.
(§4) After observation of cells under the microscope, old media were removed and the adherent cells washed gently twice with PBS (Phosphate Buffer Saline, —Ca^2+, —Mg^2+, Lonza cat no: 17-512F/12). All cells were detached with 3 ml of trypsin/EDTA (chelator of calcium and magnesium ions) (Lonza), incubated for 5 min at 37° C., and examined using a microscope to ensure that the cells were detached and floating. Then, 3 ml TNS (Trypsin Neutralizing Solution, Lonza, France, cat no CC-5002) or of culture medium were added to inactivate the trypsin, and the cell suspension was transferred in a falcon and centrifuged for 7 min at 1400 rpm. The supernatant was removed and the cell pellet resuspended in […] of culture medium. 50 μl of this solution were transferred in 20 μl of isotonic solution and the cells were counted by count cellular (Beckman Coulter). At day 0, 200 μl of cellular suspension (3.10^3 cells/well for the HUVEC cells, breast cancer cells (MDA-MB-231 1.10^4 cells/well, MDA-MB-436 1.10^4 cells/well, MDA-MB-438 2.10^4 cells/well, BT-474 2.5.10^4 cells/well); cervical cancer cells (HeLa 5.000 cells/well); colon cancer cells (HCT-116 5.10^3 cells/well, HCT-29 1.1.10^4 cells/well); osteosarcoma cells (U2OS 8.10^3 cells/well); pancreas cancer cells (MIA PaCa-2 5.10^3 cells/well, Panc-10.5 1.5.10^4 cells/well); prostate cancer cells (PC-3 4.10^3 cells/well, LNCaP 2.10^4 cells/well); brain cancer cells (U87 5.10^3 cells/well, SH-SYSY 8.10^4 cells/well)) were then plated on 96 well plates and incubated at 37° C. in a humidified atmosphere of 5% CO2 for 24 h.
(§5) At day 1, the compounds 1 or 2 of the invention were added at increasing concentrations (0.1-10 μM) in the wells and plates were incubated at 37° C. in a humidified atmosphere of 5% CO2 for 72 h.
(§6) The cell proliferation WST-1 assay is a colorimetric assay for the quantification of cell proliferation and viability, based on the enzymatic cleavage of the tetrazolium salt WST-1 added to the culture medium, to a water soluble colored formazan dye, detected by absorbance at 450 nm, by mitochondrial succinate-tetrazolium reductase in viable cells. An augmentation in enzyme activity will then lead to an increase in the amount of formazan dye formed, which directly correlates to the number of metabolically active cells in the culture.
(§7) After an incubation period of 72 h, at day 4, were prepared the 19 ml medium with reagent WST-1 1 ml ([…]). The medium was removed from the 96 microplate and 200 μl of solution WST-1/medium were added for each well. […]

MDA-MB-436 = experiment: WST-1 proliferation assay, MDA-MB-436; settings: Homo sapiens; Breast MDA-MB-436, 72 h; read-out: Anti-proliferative activity IC50 (μM) ± SD
Description: as §1, with “CRL-2266™)). […]” for “CRL-2266™)).”
(§8) After observation of cells under the microscope, old media were removed and the adherent cells washed gently twice with PBS (Phosphate Buffer Saline, —Ca^2+, —Mg^2+, Lonza cat no: 17-512F/12). […] 50 μl of this solution were transferred in 20 μl of isotonic solution and the cells were counted by count cellular (Beckman Coulter). […]
(§9) The cell proliferation WST-1 assay is a colorimetric assay for the quantification of cell proliferation and viability, based on the enzymatic cleavage of the tetrazolium salt WST-1 added to the culture medium, to a water soluble colored formazan dye, detected by absorbance at 450 nm, by mitochondrial succinate-tetrazolium reductase in viable cells. […]

MDA-MB-438 = experiment: WST-1 proliferation assay, MDA-MB-438; settings: Homo sapiens; for IC50: Breast MDA-MB-438, 72 h, read-out: Anti-proliferative activity IC50 (μM) ± SD; for inhibition at 0.1 µM: MDA-MB-438, 0.1 μM; for inhibition at 0.5 µM: MDA-MB-438, 0.5 μM; for inhibition at 1 µM: MDA-MB-438, 1 μM
Description: as §1, §2, §3, §4, §5, §6, §7

Panc-10.5 = experiment: WST-1 proliferation assay, Panc-10.5; settings: Homo sapiens; for inhibition at 0.1 µM: PANC - 10.5, 0.1 μM; for inhibition at 0.5 µM: PANC - 10.5, 0.5 μM; for inhibition at 1 µM: PANC - 10.5, 1 μM; for IC50: Pancreas Panc-10.5, 72 h, read-out: Anti-proliferative activity IC50 (μM) ± SD
Description: as §1, §2, §3, §4, §5, §6, §7

KMS-II = experiment: WST-1 proliferation assay, KMS-II; settings: Homo sapiens; Myeloma KMS-II; read-out: Anti-proliferative activity IC50 (μM) ± SD
Protocol: as §2
Cells were grown as subconfluent monolayer and cultured in 75 cm^2 flasks at 37° C., 5% CO2 in a humidified atmosphere, and medium was changed every two days. […]
as §9
After an incubation period of 72 h, at day 4, were prepared the 19 ml medium with reagent WST-1 1 ml ([…]). […] The cells were incubated at 37° C. in a humidified atmosphere of 5% CO2 for 1 h 30 and the absorbance at 450-655 nm was measured by Microplate Manager 5.2 (Bio-Rad).

SH-SY5Y = experiment: WST-1 proliferation assay, SH-SY5Y; settings: Homo sapiens; Brain SH-SY5Y, 72 h; read-out: Anti-proliferative activity IC50 (μM) ± SD
Description: as §1, with “CRL-2266™)). […]” for “CRL-2266™)).”
as §8, §9

HCT-116 = experiment: WST-1 proliferation assay, HCT-116; settings: Homo sapiens; for IC50: Colon HCT-116, 72 h, read-out: Anti-proliferative activity IC50 (μM) ± SD; for inhibition at 0.1 µM: HCT-116, 0.1 μM; for inhibition at 0.5 µM: HCT-116, 0.5 μM; for inhibition at 1 µM: HCT-116, 1 μM
Description: as §1, §2, §3, §4, §5, §6, §7

SMILES	IC50 (U87 glioblastoma) [µM]	inhibition at 0.1 µM (U87 glioblastoma) [%]	inhibition at 0.5 µM (U87 glioblastoma) [%]	inhibition at 1 µM (U87 glioblastoma) [%]	IC50 (MDA-MB-436) [µM]	IC50 (MDA-MB-438) [µM]	inhibition at 0.1 µM (MDA-MB-438) [%]	inhibition at 0.5 µM (MDA-MB-438) [%]	inhibition at 1 µM (MDA-MB-438) [%]	inhibition at 0.1 µM (Panc-10.5) [%]	inhibition at 0.5 µM (Panc-10.5) [%]	inhibition at 1 µM (Panc-10.5) [%]	IC50 (Panc-10.5) [µM]	IC50 (KMS-II) [µM]	IC50 (SH-SY5Y) [µM]	IC50 (HCT-116) [µM]	inhibition at 0.1 µM (HCT-116) [%]	inhibition at 0.5 µM (HCT-116) [%]	inhibition at 1 µM (HCT-116) [%]
Cc1ccc(-c2nc3ccccc3[nH]2)cc1NC(=S)NC(=O)c1ccc2c(c1)OCCO2 [Compound 1, N-[5-(1H-benzimidazol-2-yl)-2-methylphenyl]-N′-(2,3-dihydro-1,4-benzodioxin-6-ylcarbonyl)thiourea]	1	0	45	54	1.5 ± 0.02	1	4	40	55	21	44	56	1	2.3 ± 0.01	0.4 ± 0.03	1	7	51	56
O=C(NC(=S)Nc1cccc(-c2nc3ccccc3[nH]2)c1)c1ccc2c(c1)OCCO2 [Compound 2, N-[3-(1H-benzimidazol-2-yl)phenyl]-N′-(2,3-dihydro-1,4-benzodioxin-6-ylcarbonyl)thiourea]	0.3 ± 0.02	44	60	61	2.3 ± 0.03	0.5 ± 0.03	34	51	58	51	62	65	0.1 ± 0.09	1.8 ± 0.02	0.05 ± 0.04	1	49	58	60
